# From patent publication US10660933B2, “Compositions and methods for inhibition of bacterial infections in human endocervix” (priority 2015, dated 2020)
# Assays:
# E-cadherin = E-cadherin distribution at the apical junction of Ng-inoculated polarized T84 cells; assay type: cell-based, human; settings: polarized T84, Ng 6 h; ML-7 10 μM, 2APB 10 μM, Y27632 10 μM
# From the text: Ng-induced junction disassembly requires NMII activation and Ca^2+ flux but is suppressed by Opa. The linkage between the efficiency of Ng penetration into the epithelium with Ng induced epithelial exfoliation and apical junction disruption shown here and previously implicate Ng induced junction disruption as an underlying cause of epithelial exfoliation. To test this hypothesis, we determined whether Opa expression and the MLCK and Ca^2+ inhibitors, which all inhibited Ng induced epithelial exfoliation, also prevent Ng from disrupting the apical junction. The structural integrity of the apical junction was evaluated by analyzing the distribution of E-cadherin using immunofluorescence (IFM) and 3D-CFM and quantifying the fluorescence intensity ratio (FIR) of E-cadherin at the cytoplasm to that at the apical junction. In polarized T84 cells that were not inoculated with Ng, E-cadherin staining was primarily localized at the apical junction (FIG. 4A, top panels). […]
# Immunofluorescence analysis of polarized epithelial cells. […] Cells were analyzed by CFM. […] Epithelial exfoliation will be quantified using xz images as described for the tissue explants. The distribution of E-cadherin and pMLC was quantitatively analyzed by measuring the FIR at the apical junctional to the cytoplasmic area (from xy images) or at the apical to lateral surface area (from xz images) in individual cells.
# [1] = test system: phosphorylated myosin light chain (pMLC); test: pMLC redistribution in Ng-inoculated human endocervical tissue explants; assay type: cell-based; settings: MS11ΔOpa-inoculated endocervical tissue explants, 24 h
# Experimental: To explore the possibility of that Ng induced NMII redistribution occurs in vivo, we incubated human endocervical tissue explants with MS11ΔOpa for 24 h. Cryo-sections of the endocervical tissue were stained for pMLC, Ng and nuclei. In addition to its apical junction localization, pMLC was concentrated at the basal surface of the endocervical epithelial cells contacting with the basal membrane (FIG. 6A, upper panels). When incubated with MS11ΔOpa, there was a redistribution of pMLC from the basal to apical surface, resulting in a significant higher apical:lateral FIR in Ng inoculated tissue explants than that in no Ng control (FIG. 6), similar to what we observed in polarized T84 (FIGS. 5A and 5B) and HEC-1-B cells (FIG. 10). Furthermore, pMLC at the apical surface of the endocervical epithelial cells also concentrated at Ng adherent sites (FIG. 6A, second row, white arrows), but not at the membrane of cells neighboring exfoliating cells (FIG. 6A, second row, orange arrows). These observations confirm that Ng increase the relative amount of activated NMII at the apical surface of the endocervical epithelial cells in human tissue explants. […]
# Immunofluorescence analysis of human endocervical tissue explants. […] The tissue was fixed, embedded in gelatin, cryopreserved, sectioned crossing the apical and basolateral surfaces of the epithelium, stained for ZO1 (BD Bioscience), pMLC (Cell Signaling Technology, Beverly, Mass.), and Ng (51) by specific antibodies, and nuclei by DAPI (Life Technologies, Carlsbad, Calif.), and analyzed using CFM (Zeiss LSM 710, Carl Zeiss Microscopy LLC, Oberkochen, Germany). […]
# To quantify epithelial exfoliation, the number of Ng associated cells localized on the top of the epithelial monolayer (exfoliated) and the total number of Ng associated epithelial cells was counted by visual inspection in each randomly acquired image, to determine the percentage of exfoliated cells. To estimate the level of Ng penetration into the subepithelium, the number of non-exfoliated epithelial cells (in clearly visible epithelial monolayers) with basal Ng staining and the total number of Ng associated epithelial cells were visually counted to calculate the percentage of infected epithelial cells with Ng penetration into the basolateral side. To evaluate the disruption of the apical junction, the number of Ng associated epithelial cells that lost continuously apical staining of the junctional protein ZO1 and the total number of Ng associated epithelial cells were visually counted to calculate the percentage of Ng associated epithelial cells with apical junction disassembly. […]
Compound,punctuate cytoplasmic staining and cytoplasm:junction FIR of E-cadherin (E-cadherin),pMLC accumulation at Ng adherent sites [1],"apical:lateral FIR of pMLC ([1]; ML-7 10 μM, PIK 100 μM)"
NCCOB(c1ccccc1)c1ccccc1 [2APB],decreased the punctuate staining of E-cadherin in the cytoplasm and the cytoplasm:junction FIR of E-cadherin to or below the control level,,
O=S(=O)(c1cccc2c(I)cccc12)N1CCCNCC1 [ML-7],decreased the punctuate staining of E-cadherin in the cytoplasm and the cytoplasm:junction FIR of E-cadherin to or below the control level,significantly reduced,significantly reduced
